From patent publication US20160176867A1, “MODIFIED BET-PROTEIN-INHIBITING DIHYDROQUINOXALINONES AND DIHYDROPYRIDOPYRAZINONES” (BAYER PHARMA AKTIENGESELLSCHAFT, priority 2013, published 2016)

Columns and labels:
[1] = molecular target: T1, BRD4 bromo domain 2 [BRD4(2)] (Homo sapiens, UniProt O60885); test: BRD4/acetylated peptide H4 binding assay (TR-FRET), BRD4 bromo domain 2; conditions: inhibition of BRD4(2)/Ac-H4 peptide interaction
T1 construct: N-terminally His6-tagged BRD4(2) (amino acids 357-445); made in house; host or cells: E. coli
Excerpt: (§1) Protein-Protein Interaction Assay: BRD4/Acetylated Peptide H4 Binding Assay
To assess the BRD4(2) binding strength of the substances described in this application, the ability thereof to inhibit the interaction between BRD4(2) and acetylated histone H4 in a dose-dependent manner was quantified.
(§2) For this purpose, a time-resolved fluorescence resonance energy transfer (TR-FRET) assay was used, which measures the binding between N-terminally His6-tagged BRD4(2) (amino acids 357-445) and a synthetic acetylated histone H4 (Ac-H4) peptide with sequence SGRGK(Ac)GGK(Ac)GLGK(Ac)GGAK(Ac)RHRKVLRDNGSGSK-biotin. The recombinant BRD4(2) protein produced in-house according to Filippakopoulos et al., Nature, 2010, 468:1119-1123 and Cell, 2012, 149:214-231, was expressed in E. coli and purified by means of (Ni-NTA) affinity and (Sephadex G-75) size exclusion chromatography. The Ac-H4 peptide can be purchased, for example, from Biosyntan (Berlin, Germany).
(§3) In the assay, typically 11 different concentrations of each substance (0.1 nM, 0.33 nM, 1.1 nM, 3.8 nM, 13 nM, 44 nM, 0.15 μM, 0.51 μM, 1.7 μM, 5.9 μM and 20 μM) were analysed as duplicates on the same microtitre plate. For this purpose, 100-fold concentrated solutions in DMSO were prepared by serial dilutions (1:3.4) of a 2 mM stock solution into a clear, 384-well microtitre plate (Greiner Bio-One, Frickenhausen, Germany). From this, 50 nl were transferred into a black test plate (Greiner Bio-One, Frickenhausen, Germany). The test was started by the addition of 2 μl of a 2.5-fold concentrated BRD4(2) solution (final concentration typically 100 nM in the 5 μl of reaction volume) in aqueous assay buffer [50 mM HEPES pH 7.5, 50 mM sodium chloride (NaCl); 50 mM potassium fluoride (KF); 0.25 mM CHAPS and 0.05% serum albumin (BSA)] to the substances in the test plate. This was followed by a 10-minute incubation step at 22° C. for the pre-equilibration of putative complexes between BRD4(2) and the substances. Subsequently, 3 μl of a 1.67-fold concentrated solution (in assay buffer) consisting of Ac-H4 peptide (83.5 nM) and TR-FRET detection reagents [83.5 nM anti-6His-XL665 (Cisbio Bioassays, Codolet, France) and 12.52 nM streptavidin-Eu), (Perkin Elmer, #W1024)] in assay buffer were added.
(§4) The mixture was then incubated in the dark at 22° C. for one hour and then at 4° C. for at least 3 hours and for no longer than overnight. The formation of BRD4(2)/Ac-H4 complexes was determined by the measurement of the resonance energy transfer from the streptavidin-Eu chelate to the anti-6His-XL665 antibody present in the reaction. For this purpose, the fluorescence emission was measured at 620 nm and 665 nm after excitation at 330-350 nm in a TR-FRET measuring instrument, for example a Rubystar or Pherastar (both from BMG Lab Technologies, Offenburg, Germany) or a Viewlux (Perkin-Elmer). The ratio of the emissions at 665 nm and at 622 nm was taken as an indicator of the amount of BRD4(2)/Ac-H4 complexes formed.
(§5) The data (ratios) obtained were normalized, with 0% inhibition corresponding to the mean from the measurements for a set of controls (typically 32 data points) in which all the reagents were present. In these, in place of test substances, 50 nl of DMSO (100%) were used. Inhibition of 100% corresponded to the mean from the measurements for a set of controls (typically 32 data points) in which all the reagents except BRD4(2) were present. The IC50 was determined by regression analysis based on a 4-parameter equation (minimum, maximum, IC50, Hill; Y=max+(min−max)/(1+(X/IC50)Hill)).

[2] = molecular target: T2, BRD4 bromo domain 1 [BRD4(1)] (Homo sapiens, UniProt O60885); test: BRD4/acetylated peptide H4 binding assay (TR-FRET), BRD4 bromo domain 1; conditions: inhibition of BRD4(1)/Ac-H4 peptide interaction
T2 construct: N-terminally His6-tagged BRD4(1) (amino acids 67-152); made in house; host or cells: E. coli
Excerpt: as §1
To assess the BRD4(1) binding strength of the substances described in this application, the ability thereof to inhibit the interaction between BRD4(1) and acetylated histone H4 in a dose-dependent manner was quantified.
as §2, with “BRD4(1)” for “BRD4(2)”, “67-152)” for “357-445)”, “GRGK(Ac)GGK(Ac)GLGK(Ac)GGAK(Ac)RHGSGSK-biotin.” for “SGRGK(Ac)GGK(Ac)GLGK(Ac)GGAK(Ac)RHRKVLRDNGSGSK-biotin.”
as §3, with “concentrated BRD4(1)” for “concentrated BRD4(2)”, “typically 10” for “typically 100”, “chloride (NaCl),” for “chloride (NaCl); 50 mM potassium fluoride (KF);”, “between BRD4(1)” for “between BRD4(2)”, “substances.” for “substances. Subsequently, 3 μl of a 1.67-fold concentrated solution (in assay buffer) consisting of Ac-H4 peptide (83.5 nM) and TR-FRET detection reagents [83.5 nM anti-6His-XL665 (Cisbio Bioassays, Codolet, France) and 12.52 nM streptavidin-Eu), (Perkin Elmer, #W1024)] in assay buffer were added.”
as §4, with “BRD4(1)/Ac-H4” for “BRD4(2)/Ac-H4”, “cryptate” for “chelate”
as §5, with “BRD4(1)” for “BRD4(2)”

| IC50 [1] | IC50 [2] | Structure (SMILES) |
| --- | --- | --- |
| 589 nM | 386 nM | Cc1cccc(N2c3nc(Nc4cccc(S(=O)(=O)NC5CCN(C)CC5)c4)ccc3N(C)C(=O)C2C)c1 (stereo not drawn) [Example 65, 3-{[1,3-dimethyl-4-(3-methylphenyl)-2-oxo-1,2,3,4-tetrahydropyrido-[2,3-b]pyrazin-6-yl]amino}-N-(1-methylpiperidin-4-yl)benzenesulphonamide] |
| 325 nM | 439 nM | COc1c(Nc2ccc3c(n2)N(C2CCOCC2)[C@H](C)C(=O)N3C)cccc1C(=O)N[C@H]1CC[C@H](N2CCN(CC3CC3)CC2)CC1 [Example 91, N-{trans-4-[4-(cyclo-propylmethyl)piperazin-1-yl]cyclohexyl}-3-{[(3R)-1,3-dimethyl-2-oxo-4-(tetrahydro-2H-pyran-4-yl)-1,2,3,4-tetrahydropyrido[2,3-b]pyrazin-6-yl]amino}-2-methoxybenzamide] |
| 308 nM | 1110 nM | C[C@@H]1C(=O)N(C)c2ccc(Nc3cccc(S(=O)(=O)N4CCN(CC(F)(F)F)CC4)c3)nc2N1C1CCN(C(=O)OC(C)(C)C)CC1 [Example 66, tert-butyl 4-[(3R)-1,3-dimethyl-2-oxo-6-[(3-{[4-(2,2,2-trifIuoroethyl)-piperazin-1-yl]sulphonyl}-phenl)amino]-2,3-dihydropyrido[2,3-b]pyrazin-4(1H)-yl]piperidine-1-carboxylate] |
| 274 nM | 551 nM | C[C@@H]1C(=O)N(C)c2ccc(Nc3cccc(C(=O)N[C@H]4CC[C@H](N5CCN(CC6CC6)CC5)CC4)c3)nc2N1C1CCCCC1 [Example 99, 3-{[(3R)-4-cyclohexyl-1,3-dimethyl-2-oxo-1,2,3,4-tetrahydropyrido[2,3-b]pyrazin-6-yl]amino}-N-{trans-4-[4-(cyclopropyl-methyl)piperazin-1-yl]cyclohexyl}benzamide] |
| 4230 nM | 727 nM | C[C@H]1C(=O)N(C)c2ccc(Nc3cccc(S(=O)(=O)N[C@H]4CC[C@H](N5CCN(CC6CC6)CC5)CC4)c3)nc2N1C1CCOCC1 [Example 36, N-{trans-4-[4-(cyclopropylmethyl)-piperazin-1-yl]cyclohexyl}-3-{[(3S)-1,3-dimethyl-2-oxo-4-(tetrahydro-2H-pyran-4-yl)-1,2,3,4-tetrahydropyrido[2,3-b]pyrazin-6-yl]amino}-benzenesulphonamide] |
| 277 nM | 475 nM | C[C@@H]1C(=O)N(C)c2ccc(Nc3cccc(C(=O)NC4CCN(C)CC4)c3)nc2N1C1CCCCC1 [Example 95, 3-{[(3R)-4-cyclohexyl-1,3-dimethyl-2-oxo-1,2,3,4-tetrahydropyrido[2,3-b]pyrazin-6-yl]amino}-N-(1-methylpiperidin-4-yl)benzamide] |
| 137 nM | 66 nM | C[C@@H]1C(=O)N(C)c2ccc(Nc3cccc(S(=O)(=O)NCCN(C)C)c3)nc2N1C1CCNCC1 [Example 128, N-[2-(dimethylamino)ethyl]-3-{[(3R)-1,3-dimethyl-2-oxo-4-(piperidin-4-yl)-1,2,3,4-tetrahydropyrido[2,3-b]pyrazin-6-yl]amino}-benzenesulphonamide] |
| 817 nM | 357 nM | C[C@@H]1C(=O)N(C)c2ccc(Nc3cccc(C(=O)N4CCN(C)CC4)c3)cc2N1C1CCOCC1 [Example 106, (3R)-1,3-dimethyl-6-({3-[(4-methylpiperazin-1-yl)carbonyl]phenyl}amino)-4-(tetrahydro-2H-pyran-4-yl)-3,4-dihydroquinoxalin-2(1H)-one] |
| 518 nM | 810 nM | COc1c(Nc2ccc3c(n2)N(C2CCOCC2)[C@H](C)C(=O)N3C)cccc1C(=O)NC1CCN(C)CC1 [Example 103, 3-{[(3R)-1,3-dimethyl-2-oxo-4-(tetrahydro-2H-pyran-4-yl)-1,2,3,4-tetrahydropyrido[2,3-b]pyrazin-6-yl]amino}-2-methoxy-N-(1-melhylpiperidin-4-yl)benzamide] |
| 579 nM | 452 nM | COc1c(Nc2ccc3c(n2)N(C2CCOCC2)[C@H](C)C(=O)N3C)cccc1C(=O)N1CCN(C)CC1 [Example 92, (3R)-6-({2-methoxy-3-[(4-methylpiperazin-1-yl)carbonyl]phenyl}-amino)-1,3-dimethyl-4-(tetrahydro-2H-pyran-4-yl)-3,4-dihydropyrido[2,3-b]pyrazin-2(1H)-one] |
| 57 nM | 5300 nM | COCCN1c2nc(Nc3cccc(S(=O)(=O)N4CCOCC4)c3)ccc2N(C)C(=O)[C@@H]1C (stereo in doubt) [Example 112, (3S)-4-(2-methoxyethyl)-1,3-dimethyl-6-{[3-(morpholin-4-ylsulphonyl)phenyl]amino}-3,4-dihydropyrido[2,3-b]pyrazin-2(1H)-one] |
| 216 nM | 531 nM | COCCN1c2nc(Nc3cccc(C(=O)NC4CCN(C)CC4)c3)ccc2N(C)C(=O)C1C (racemic) [Example 98, 3-{[4-(2-methoxyethyl)-1,3-dimethyl-2-oxo-1,2,3,4-tetrahydropyrido[2,3-b]pyrazin-6-yl]amino}-N-(1-methylpiperidin-4-yl)benzamide] |
